Source: patent US6479531B1, “Gastrin and cholecystokinin receptor ligands” (James Black Foundation Limited, priority 1998, dated 2002)

target: T1, gastrin receptor (Rattus norvegicus, UniProt P30553); assay: gastrin antagonist activity in immature rat stomach assay (pentagastrin dose-response, acid secretion); details: isolated immature rat stomach, cumulative pentagastrin dose-response curves, read-out: Gastrin pKb (converted)
T1 construct: The stomach was excised and flushed with ca. 1 ml of unbuffered physiological saline solution; from tissue; host or cells: isolated whole stomach of immature rats (ca. 21 days old)
T1 sequence (P30553 1-452): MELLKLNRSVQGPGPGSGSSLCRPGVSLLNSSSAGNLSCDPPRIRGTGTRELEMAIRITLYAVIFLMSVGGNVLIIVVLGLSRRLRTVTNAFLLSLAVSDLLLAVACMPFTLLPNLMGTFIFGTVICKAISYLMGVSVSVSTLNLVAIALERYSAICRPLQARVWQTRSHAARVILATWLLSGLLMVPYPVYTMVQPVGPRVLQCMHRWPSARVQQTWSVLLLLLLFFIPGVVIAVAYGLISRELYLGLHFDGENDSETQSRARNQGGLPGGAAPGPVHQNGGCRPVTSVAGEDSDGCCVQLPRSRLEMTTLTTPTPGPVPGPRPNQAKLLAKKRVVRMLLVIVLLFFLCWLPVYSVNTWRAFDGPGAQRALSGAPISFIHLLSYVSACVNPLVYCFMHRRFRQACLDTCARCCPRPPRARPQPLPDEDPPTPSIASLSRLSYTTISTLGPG
Method in brief: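 Gastrin antagonism was measured as the effect on cumulative pentagastrin dose-response curves of acid output, recorded by pH electrode in the perfusate of an excised immature rat stomach (ca. 21 days old). Test compound was placed in the serosal bath (37°, 3×10^−8 M 5-methylfurmethide) 60 min before pentagastrin.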

Row | Kb [nM] | SMILES
1 | 8.71 | O=C(O)c1cccc(NC(=O)c2nc(-c3c(Cl)cccc3Cl)[nH]c2COC23CC4CC(CC(C4)C2)C3)c1 [Example 311, 3-{[5-(Adamantan-1-yloxymethyl)-2-(2,6-dichloro-phenyl)-1H-imidazole-4-carbonyl]-amino}-benzoic Acid]
2 | 0.724 | O=C(O)c1cccc(NC(=O)c2nc(C3CCCCCC3)[nH]c2COC23CC4CC(CC(C4)C2)C3)c1 [Example 228, 3-{[5-(Adamantan-1-yloxymethyl)-2-cycloheptyl-1H-imidazole-4-carbonyl]-amino}-benzoic Acid]
3 | 3.02 | Cc1ccc(NC(=O)c2nc(C34CCC(CC3)CC4)[nH]c2COC23CC4CC(CC(C4)C2)C3)cc1C(=O)O [Example 300, 5-{[5-(Adamantan-1-yloxymethyl)-2-bicyclo[2.2.2]oct-1-yl-1H-imidazole-4-carbonyl]-amino}-2-methyl-benzoic Acid]
4 | 1.95 | Cc1ccc(NC(=O)c2nc(C3CCCCCCC3)[nH]c2COC23CC4CC(CC(C4)C2)C3)cc1C(=O)O [Example 298, 5-{[5-(Adamantan-1-yloxymethyl)-2-cyclooctyl-1H-imidazole-4-carbonyl]-amino}-2-methyl-benzoic Acid]
5 | 2.63 | Cc1ccc(NC(=O)c2nc(C34C=CC(CC3)CC4)[nH]c2COC23CC4CC(CC(C4)C2)C3)cc1C(=O)O [Example 301, 5-{[5-(Adamantan-1-yloxymethyl)-2-bicyclo[2.2.2]oct-2-en-1-yl-1H-imidazole-4-carbonyl]-amino}-2-methyl-benzoic Acid]
6 | 363 | Cn1c(C2CCCCC2)nc(C(=O)Nc2cccc(CC(=O)O)c2)c1CCC12CC3CC(CC(C3)C1)C2 [Example 215, (3-{[5-(2-Adamantan-1-yl-ethyl)-2-cyclohexyl-1-methyl-1H-imidazole-4-carbonyl]-amino}-phenyl)-acetic Acid]
7 | 589 | CCCCCC12CCC(c3nc(C(=O)Nc4cccc(C(=O)O)c4)c(COC45CC6CC(CC(C6)C4)C5)[nH]3)(CC1)CC2 [Example 302, 3-{[5-(Adamantan-1-yloxymethyl)-2-(4-pentyl-bicyclo[2.2.2]oct-1-yl)-1H-imidazole-4-carbonyl]-amino}-benzoic Acid]
8 | 49 | C[C@@H](NC(=O)c1cccc(NC(=O)c2nc(C3CCCCC3)[nH]c2CCC23CC4CC(CC(C4)C2)C3)c1)C(=O)O [Example 273, (R)-2-(3-{[5-(2-Adamantan-1-yl-ethyl)-2-cyclohexyl-1H-imidazole-4-carbonyl]-amino}-benzoylamino)-propionic Acid]
9 | 708 | O=C(O)c1cccc(OC(=O)c2nc(C3CCCCC3)[nH]c2CCC23CC4CC(CC(C4)C2)C3)c1 [Example 282, 5-(2-Adamantan-1-yl-ethyl)-2-cyclohexyl-1H-imidazole-4-carboxylic Acid 3-carboxy-phenyl Ester]
10 | 1000 | O=C(Nc1cccc(C(=O)N2CCC[C@H]2C(=O)O)c1)c1nc(C2CCCCC2)[nH]c1CCC12CC3CC(CC(C3)C1)C2 [Example 285, (S)-1-(3-{[5-(2-Adamantan-1-yl-ethyl)-2-cyclohexyl-1H-imidazole-4-carbonyl]-amino}-benzoyl)-pyrrolidine-2-carboxylic Acid]
11 | 0.776 | O=C(O)c1cc(NC(=O)c2nc(C34CCC(CC3)CC4)[nH]c2COC23CC4CC(CC(C4)C2)C3)ccc1F [Example 223, 5-{[5-(Adamantan-1-yloxymethyl)-2-bicyclo[2.2.2]oct-1-yl-1H-imidazole-4-carbonyl]-amino}-2-fluoro-benzoic Acid]
12 | 26.9 | O=C(NO)c1cccc(NC(=O)c2nc(C3CCCCC3)[nH]c2COC23CC4CC(CC(C4)C2)C3)c1 [Example 286, 5-(Adamantan-1-yloxymethyl)-2-cyclohexyl-1H-imidazole-4-carboxylic Acid (3-hydroxycarbamoyl-phenyl)-amide]
